Results as given in US5045548A, “Quinolyl methoxy compounds and their use as antiasthmatic agents” (Fujisawa Pharmaceutical Company, Ltd., priority 1987, dated 1991).
Counter-ions that a name gives are not always drawn.

Tested on: SRS-A (Slow Reacting Substance of Anaphylaxis) synthesis in rat polymorpholeukocyte (PMN)
Experiment: Inhibitory Activity of SRS-A synthesis in rat polymorpholeukocyte (PMN) using the calcium ionophore A23187 (i-LTC4 by radioimmunoassay)
Assay type: cell-based, rat (male Sprague-Dawley)
Details: 10 μM A23187, 15 min, 37° C.
Description: Test I: Inhibitory Activity of SRS-A (Slow Reacting Substance of Anaphylaxis) synthesis in rat polymorpholeukocyte (PMN) of using the calcium ionophore Male Sprague-Dawley rats weighing 250-300 g were anesthetized with ether and each was injected intraperitoneally with 20 ml of 0.1% clycogen (from Oyster). After 20 hours the rats were sacrificed and PMN were recovered in rinse of the peritoneal cavity with 10 ml Dulbeccos PBS (components in g/L: CaCl2 0.1, KH2 PO4 0.2, MgCl2.6H2 O 0.1, NaCl 8.0, Na2 HPO4.7H2 O 2.16; pH7.4). These rinses were filtered through nylon wool filter and centrifuged for 5 min at 1000 xg. The pellet was suspended in Dulbeccos PBS and centrifuged for 5 min at 1000 xg. The pellet was resuspended in Dulbeccos PBS and adjusted the cell concentration to 10^7 cells/ml with Dulbeccos PBS. Samples were dissolved in ethanol and dispersed in Dulbeccos PBS to give a concentration of 10^-10 -10^-5 M Antibiotic A23187; calcium ionophor ([…] Diagnostics) (hereinafter referred to A23187) in DMSO(10mM) was diluted with Dulbeccos PBS to give the concentration of 1 mM. Aliquots of the cell suspension (1×10^7 cells/ml, 0.98 ml) were equilibrated for 30 min at 37° C. Solution of sample(10 μl) was added and incubated for 15 min at 37° C. before the addition of 10 μl of A23187 solution. Thus the final incubation volume of 1 ml contained approximately 1×10^7 cells, 10^-10 -10^-5 M samples and 10 μM A23187. Incubation with A23187 were continued for 15 min at 37° C. The reactions were terminated by setting the assay tubes in ice bath to chill as rapidly as possible to 4° C. The test tubes were centrifuged at 1500 xg for 5 min at 4° C. and decanted the supernatants into the tubes and kept cold prior to assaying. The concentration of i-LTC4 in the cell-free supernatants from the incubations were determined by specific radioimmunoassay. The mean values of i-LTC4 (these incubations were carried out in duplicate) of each sample were calculated and the effect of samples on the synthesis of the leukotrienes was presented as a percentage of the value in the absence of samples.

IC50 (Rattus norvegicus, 0.25 h)	SMILES	IC50 (hydrochloride)
370 nM	CCCCC1(CCCC)CCc2c(OCc3ccc(C(N)=O)cc3)cccc2C1O (stereo not drawn) [Example 16, 2,2-Dibutyl-5-(4-carbamoylbenzyloxy)-1,2,3,4-tetrahydro-1-naphthol]	–
1100 nM	CCCCC1(CCCC)CCc2ccc(OCc3ccc4ccccc4n3)cc2C1=O [Example 19, 2,2-Dibutyl-3,4-dihydro-7-(2-quinolylmethoxy)-1(2H)-naphthalenone]	–
210 nM	CCCCC1(CCCC)Cc2c(OCc3ccc4ccccc4n3)cccc2C1O (stereo not drawn) [Example 15, 2,2-Dibutyl-4-(2-quinolylmethoxy)-1-indanol]	–
42 nM	CCCCCC1(CCCCC)CCc2c(OCc3ccc4ccccc4n3)cccc2C1O (stereo not drawn) [Example 14, 2,2-Dipentyl-5-(2-quinolylmethoxy)-1,2,3,4-tetrahydro-1-naphthol]	–
120 nM	CCCCC1(CCCC)CCc2c(OCc3ccncc3)cccc2C1O (stereo not drawn) [Example 12, 2,2-Dibutyl-5-(4-pyridylmethoxy)-1,2,3,4-tetrahydro-1-naphthol]	–
1100 nM	CCCCC1CCc2ccc(OCc3ccc4ccccc4n3)cc2C1=O (stereo not drawn) [Example 23, 2-Butyl-3,4-dihydro-7-(2-quinolylmethoxy)-1(2H)-naphthalenone hydrochloride]	–
210 nM	CCCCC1(CCCC)CCc2c(OCc3nc4ccccc4n3C)cccc2C1O (stereo not drawn) [Example 26, 2,2-Dibutyl-5-[2-(1-methylbenzimidazolyl)methoxy]-1,2,3,4-tetrahydro-1-naphthol]	–
14 nM	CCCCC1(CCCC)CCc2c(OCc3ccc4ccccc4n3)ccc(Cl)c2C1O (stereo not drawn) [Example 33, 8-chloro-2,2-dibutyl-5-(2-quinolylmethoxy)-1,2,3,4-tetrahydro-1-naphthol]	–
160 nM	CCCCC1(CCCC)CCc2c(OCc3ccccc3C(N)=O)cccc2C1O (stereo not drawn) [Example 8, 2,2-dibutyl-5-(2-carbamoylbenzyloxy)-1,2,3,4-tetrahydro-1-naphthol]	–
–	CCCCC1(CCCC)CCc2c(OCc3ccc4ccccc4n3)cccc2C1O (single isomer, unassigned; (+)) [Example 41, (+)-2,2-dibutyl-5-(2-quinolylmethoxy)-1,2,3,4-tetrahydro-1-naphthol hydrochloride]	5.6 nM
83 nM	CCCCC1CCc2c(OCc3ccc4ccccc4n3)cccc2C1O (stereo not drawn) [Example 20, 2-Butyl-5-(2-quinolylmethoxy)-1,2,3,4-tetrahydro-1-naphthol]	–
280 nM	CCCCC1(CCCC)Cc2c(OCc3ccc4ccccc4n3)cccc2C1=O [Example 5, 2,2-Dibutyl-4-(2-quinolylmethoxy)-1-indanone hydrochloride]	–
2.5 nM	CC(C)CC1(CC(C)C)CCc2c(OCc3ccc4ccccc4n3)cccc2C1O (stereo not drawn) [Example 37, 2,2-Diisobutyl-5-(2-quinolylmethoxy)-1,2,3,4-tetrahydro-1-naphthol]	–
1900 nM	CCCCC1CCc2c(OCc3ccc4ccccc4n3)cccc2C1=O (stereo not drawn) [Example 17, 2-Butyl-3,4-dihydro-5-(2-quinolylmethoxy)-1(2H)-naphthalenone]	–
360 nM	CCCCC1(CCCC)CCc2c(OCc3ccc4ccccc4n3)ccc(O)c2C1=O [Example 38, 2,2-Dibutyl-3,4-dihydro-8-hydroxy-5-(2-quinolylmethoxy)-1(2H)-naphthalenonehydrochloride]	–
640 nM	CCCCC1(CCCC)CCc2c(OCc3ccc4ccccc4n3)ccc(C)c2C1=O [Example 39]	–
6.5 nM	CCCCC1(CCCC)CCc2c(OCc3ccc4ccccc4n3)ccc(C)c2C1O (stereo not drawn) [Example 35, 2,2-Dibutyl-8-methyl-5-(2-quinolylmethoxy)-1,2,3,4-tetrahydro-1-naphthol]	–
50 nM	CCCCC1(CCCC)CCc2c(OCc3nc4ccccc4s3)cccc2C1O (stereo not drawn) [Example 11, 2,2-Dibutyl-5-(2-benzothiazolylmethoxy)-1,2,3,4-tetrahydro-1-naphthol]	–
860 nM	CCCCC1(CCCC)CCc2ccc(OCc3ccc4ccccc4n3)cc2C1O (stereo not drawn) [Example 22, 2,2-Dibutyl-7-(2-quinolylmethoxy)-1,2,3,4-tetrahydro-1-naphthol hydrochloride]	–
430 nM	CCCCC1CCc2ccc(OCc3ccc4ccccc4n3)cc2C1O (stereo not drawn) [Example 21, 2-butyl-7-(2-quinolylmethoxy)-1,2,3,4-tetrahydro-1-naphthol hydrochloride]	–
120 nM	CCCCC1(CCCC)CCc2c(OCc3ccc4ccccc4n3)ccc(O)c2C1O (stereo not drawn) [Example 36, 2,2-Dibutyl-8-hydroxy-5-(2-quinolylmethoxy)-1,2,3,4-tetrahydro-1-naphthol hydrochloride]	–
620 nM	CCCCC1(CCCC)CCc2c(OCc3ccc4ccccc4n3)cccc2C1=O [Example 25, 2,2-Dibutyl-3,4-dihydro-5-(2-quinolylmethoxy)-(1(2H)-naphthalenone hydrochloride]	–
300 nM	CCCCC1(CCCC)CCc2c(OCC3=C(C)C(=O)c4ccccc4C3=O)cccc2C1O (stereo not drawn) [Example 27, 2,2-Dibutyl-5-[2-(3-methyl-1,4-naphthalenedionyl)methoxy]-1,2,3,4-tetrahydro-1-naphthol]	–
81 nM	CCCCC1(CCCC)CCc2c(OCc3ccccn3)cccc2C1O (stereo not drawn) [Example 7, 2,2-dibutyl-5-(2-pyridylmethoxy)-1,2,3,4-tetrahydro-1-naphthol]	–
2.2 nM	CCCCC1(CCCC)CCc2c(OCc3ccc4ccccc4n3)ccc(F)c2C1O (stereo not drawn) [Example 34, 2,2-Dibutyl-8-fluoro-5-(2-quinolylmethoxy)-1,2,3,4-tetrahydro-1-naphthol]	–
15 nM	CCCC1(CCC)CCc2c(OCc3ccc4ccccc4n3)cccc2C1O (stereo not drawn) [Example 13, 2,2-Dipropyl-5-(2-quinolylmethoxy)-1,2,3,4-tetrahydro-1-naphthol]	–

SMILES	IC50 (Rattus norvegicus, 0.25 h)	IC50 (hydrochloride)
CCCCC1(CCCC)CCc2c(OCc3ccc4ccccc4n3)cccc2C1O (stereo not drawn) [Example 6, 2,2-dibutyl-5-(2-quinolylmethoxy)-1,2,3,4-tetrahydro-1-naphthol]	8.7 nM	–
